In PubChem BioAssay (NCI):
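Method: 48-hour compound exposure of cells in 96-well plates, five concentrations, linear interpolation of endpoints. Here, GI50 denotes the concentration required for 50% inhibition of growth. TGI marks complete inhibition of growth.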

Legend:
Assay in all cases: NCI tumour cell line growth inhibition, 48 h
[1] = system: BT-549 breast
[2] = system: LOX IMVI melanoma
[3] = system: TK-10 renal
[4] = system: ACHN renal
[5] = system: HS 578T breast
[6] = system: CAKI-1 renal
[7] = system: RXF 393 renal
[8] = system: DLD-1 colon
[9] = system: KM20L2 colon
[10] = system: M19-MEL melanoma
[11] = system: P388 leukemia
[12] = system: SNB-78 CNS
[13] = system: XF 498 CNS

| SMILES | TGI [1] | TGI [2] | TGI [3] | GI50 [4] | TGI [4] | GI50 [1] | GI50 [5] | TGI [5] | GI50 [3] | TGI [6] | TGI [7] | TGI [8] | TGI [9] | TGI [10] | TGI [11] | TGI [12] | TGI [13] |
| --- | --- | --- | --- | --- | --- | --- | --- | --- | --- | --- | --- | --- | --- | --- | --- | --- | --- |
| CCOc1ncn(-c2ccc(NC(=S)Nc3cccc(O)c3)cc2)n1 | > 100 µM | > 100 µM | > 100 µM |  |  |  |  |  |  |  |  |  |  |  |  |  |  |
| ClCCN(CCCl)Cc1ccc(Nc2ccnc3cc(Cl)ccc23)cc1 | 6.04 µM |  | 6.22 µM | 548 nM | > 100 µM | 2120 nM | 2920 nM | 8.38 µM | 2420 nM |  |  |  |  |  |  |  |  |
| COc1ccc(C(=O)C2CC3(CCC2(O)c2ccc(OC)cc2)CC(=O)Nc2ccccc2C3=O)cc1 (stereo not drawn) | > 100 µM | > 100 µM | > 100 µM |  |  |  |  | > 100 µM |  | > 100 µM | > 100 µM |  |  |  |  |  |  |
| CC1(C)CCc2c(cc3c(c2O)CCC(C)(C)O3)O1 | > 100 µM |  | > 100 µM |  | > 100 µM |  |  | > 100 µM |  | > 100 µM |  |  |  |  |  |  |  |
| Cc1ccc(OP2(=O)Oc3ccc4ccccc4c3CN2c2ccc(Cl)cc2)cc1C (stereo not drawn) |  | > 100 µM |  |  |  |  |  |  |  | > 100 µM | > 100 µM | > 100 µM | > 100 µM | > 100 µM | > 100 µM | > 100 µM | > 100 µM |
| Nc1cc2c(cc1[N+](=O)[O-])[nH]c1c(-c3ccccc3)nccc12 |  | 28.8 µM |  |  |  |  |  |  |  |  | 73.1 µM | > 76.5 µM | > 82.8 µM | 42.7 µM | 41 µM | > 58.2 µM | > 100 µM |
| C=C/C(C)=C/[C@H](C)C(=O)C[C@H](O)CC1CC(=O)NC(=O)C1 |  | > 100 µM |  |  |  |  |  |  |  | > 100 µM | > 100 µM | > 100 µM | > 100 µM | > 100 µM | > 100 µM | > 100 µM | 9.91 µM |
| COC[C@H]1C(=O)NCC(=O)N2NCCC[C@H]2C(=O)N(O)[C@H](C)C(=O)O[C@@H](C(C)C)[C@H](NC(=O)[C@](C)(O)[C@]2(O)CC[C@@H](CC(C)C)[C@H](C)O2)C(=O)N2NCCC[C@@H]2C(=O)N1O |  |  | 0.0322 µM | 16.8 nM | 0.0307 µM |  | < 10 nM | 0.0244 µM | 18.1 nM |  |  |  |  |  |  |  |  |
| CO/C(=N\N=C(/C)C(F)(F)F)c1ccncc1 | > 100 µM |  |  |  |  |  |  | > 100 µM |  | > 100 µM | > 100 µM |  |  |  |  |  |  |
